Laboratory results: patent US20250109127A1, “METHODS OF USE OF PHENOXYPROPYLAMINE COMPOUNDS TO TREAT DEPRESSION” (Minerva Neurosciences, Inc., priority 2013, published 2025)
“And” between values parts separate entries of the source, which are not always exact repeats. Equal entries are not always repeated. Structures can show the parent of a compound that is named as a salt.

Test system: HVA release in the rat prefrontal cortex
Test: Microdialysis: HVA release in prefrontal cortex after I.P. administration
Assay type: in vivo
Settings: for HVA (% of respective basal), individual animal: 0.1 mg/kg I.P., c2-c9 = R#13,14,20,19,25,26,31,32; for HVA (% of respective basal), individual animal / HVA release, individual animals: hydrochloride; for HVA release, MEAN / HVA release, individual animals: 0.3 mg/kg I.P.; for HVA release, MEAN / HVA release (% of basal levels) measured in dialysates, MEAN: n = 8; for HVA release, individual animals: one column per animal R#11,12,18,23,29,30,17,24; for HVA release (% of basal levels) measured in dialysates, MEAN: SON-117 3 mg/kg IP
Method: The aim of the study was to evaluate, using microdialysis, the effects of an intraperitoneal (I.P.) administration in rats of three different doses of SON-117 on dopamine and its metabolites, serotonin and its metabolite (5-HIAA), and norepinephrine levels in prefrontal cortex.
Thirty-two adult male Wistar rats were used for the whole study (4 groups of eight animals planned for the study, Table 1).
Surgery was performed on rats weighing about 300 g at the beginning of the experiments. Rats were anaesthetized with Ketamine (50 mg/kg) & Xylazine (15 mg/kg) by intramuscular administration. The animals were placed in a stereotaxic apparatus in the flat-skull position at a constant setting of −3.3 mm between ear bars and the incisor bar. The animals were treated with a local anesthesic (xylocaine 1%, Astra Zeneca) and an analgesic (Temgesic, from Schering Plough, 0.05 mg/kg, s.c.). A rostrocaudal midline incision was made with a lancet to expose the dorsal skull surface. The “stereotaxic zero” was defined by the Bregma in accordance with Paxinos and Watson's atlas (1986). A hole was drilled in the skull with a drill and the meninges were pierced with a sterile needle to implant a CMA12 guide cannula which later received the dialysis probe.
Coordinates used for implanting guide cannula in prefrontal cortex from Bregma were anteroposterior 3.7 mm, mediolateral 0.8 mm, and dorsoventral −2 mm (top of the probe was at −5 mm). The guide cannula was fixed to the skull with two stainless steel screws (1.88 mm outside diameter) anchored. An application of dental cement was added. A plastic collar allowed each animal to be tethered to a Swivel assembly of the CMA 120 awake animal system. Following surgery, rats were kept in individual cages and allowed to recover for a minimum of 3-5 days before the experimentation. The rats were handled and put in plastic bowl for 10 min at least every day to habituate the animals to their new environment for the dialysis. An I.P. administration with saline was also performed every day.
Dialysis probes (CMA12/3 mm, membrane, 20 kD cut-off, Carnegie Medicine, Stockholm, Sweden), were carefully washed before inserting into the guide cannula. The wash was performed with the artificial cerebrospinal fluid (aCSF) medium (NaCl 147 mM, KCl 2.7 mM, CaCl2 1.2 mM, MgCl2 0.85 mM) at room temperature. The dialysis system was then equilibrated at 20° C. at a perfusion rate of 1 μl/min with a Carnegie pump (CMA100). All catheters (FEP tubing, internal volume of 1.2 μl/10 cm, and tubing adaptors) used for microdialysis were treated in the same conditions.
The probes duly prepared were inserted into the guide cannula and the CMA120 Swivel assembly secured to the animal using a plastic collar. Flow through the dialysis probe with aCSF was maintained at a rate of 1 μl/min during the whole experimentation. The first four fractions (corresponding to 2 hours) were discarded to avoid the effects of parenchymal disturbance and to ensure that an approximate steady-state level was reached. Fractions were then collected over a period of 8.5 h during which time the animals remained quiet. The dialysates were automatically collected with an autosampler (microfraction collector CMA 140, Carnegie Medicin) and stored at −80° C. until analysis. […] Perfusion was then maintained for 7 hours with aCSF. The dialysates (30 μl) were collected into 300 μl vials, transferred into dry ice and then kept frozen (−80° C.) until analysis. Frozen samples were shipped to a partner for analysis. At the end of the microdialysis study, a PBS with colored ink was perfused through the probe in order to visualize the dialyzed area.
Catecholamine assay: Concentrations of dopamine, DOPAC, HVA, 5-HIAA, 5-HT, and norepinephrin were determined for each sample by HPLC coupled with electrochemical detection.

Cc1nnc(-c2cc3c(OC[C@@H](O)CN4CCC(c5ccc(Cl)c(Cl)c5)CC4)cccc3o2)o1 [SON-117, (S)-1-(4-(3,4-dichlorophenyl)piperidino)-3-(2-(5-methyl-1,3,4-oxadiazol-2-yl)benzo(b)furan-4-yloxy)-2-propanol hydrochloride]
HVA (% of respective basal), individual animal (T30-T1 h): 116.26 % of respective basal and 107.34 % of respective basal and 108.66 % of respective basal and 130.85 % of respective basal and 120.36 % of respective basal and 141.88 % of respective basal and 123.41 % of respective basal and 95.76 % of respective basal
HVA (% of respective basal), individual animal (T1 h 30-T2 h): 97.75 % of respective basal and 109.52 % of respective basal and 89.93 % of respective basal and 170.371 % of respective basal and 123.81 % of respective basal and 97.71 % of respective basal and 126.7 % of respective basal and 80.99 % of respective basal
HVA (% of respective basal), individual animal (T1 h-T1 h 30): 124.25 % of respective basal and 162.58 % of respective basal and 98.567 % of respective basal and 241.96 % of respective basal and 130.93 % of respective basal and 153.68 % of respective basal and 123.58 % of respective basal and 80.09 % of respective basal
HVA (% of respective basal), individual animal (T2 h 30-T3 h): 88.46 % of respective basal and 123.19 % of respective basal and 75.76 % of respective basal and 151.82 % of respective basal and 149.48 % of respective basal and 157.13 % of respective basal and 121.53 % of respective basal and 21.68 % of respective basal
HVA (% of respective basal), individual animal (T2 h-T2 h 30): 83.46 % of respective basal and 121.21 % of respective basal and 80.97 % of respective basal and 145.084 % of respective basal and 132.39 % of respective basal and 106.30 % of respective basal and 139.18 % of respective basal and 53.45 % of respective basal
HVA (% of respective basal), individual animal (T3 h 30-T4 h): 94.31 % of respective basal and 116.57 % of respective basal and 55.89 % of respective basal and 152.08 % of respective basal and 193.52 % of respective basal and 154.95 % of respective basal and 123.32 % of respective basal and 16.37 % of respective basal
HVA (% of respective basal), individual animal (T3 h-T3 h 30): 135.42 % of respective basal and 99.88 % of respective basal and 73.47 % of respective basal and 137.35 % of respective basal and 137.07 % of respective basal and 115.93 % of respective basal and 133.06 % of respective basal and 20.75 % of respective basal
HVA (% of respective basal), individual animal (T4 h 30-T5 h): 128.74 % of respective basal and 102.18 % of respective basal and 100.29 % of respective basal and 40.6 % of respective basal and 130.76 % of respective basal and 136.09 % of respective basal and 114.46 % of respective basal and 68.31 % of respective basal
HVA (% of respective basal), individual animal (T4 h-T4 h 30): 149.58 % of respective basal and 107.72 % of respective basal and 55.17 % of respective basal and 173.59 % of respective basal and 155.95 % of respective basal and 149.97 % of respective basal and 148.42 % of respective basal and 76.98 % of respective basal
HVA (% of respective basal), individual animal (T5 h 30-T6 h): 146.23 % of respective basal and 127.63 % of respective basal and 35.72 % of respective basal and 136.22 % of respective basal and 116.99 % of respective basal and 123.45 % of respective basal and 128.36 % of respective basal and 65.12 % of respective basal
HVA (% of respective basal), individual animal (T5 h-T5 h 30): 143.02 % of respective basal and 149.35 % of respective basal and 36.52 % of respective basal and 131.08 % of respective basal and 120.77 % of respective basal and 117.84 % of respective basal and 126.17 % of respective basal and 77.12 % of respective basal
HVA (% of respective basal), individual animal (T6 h 30-T7 h): 155.64 % of respective basal and 142.57 % of respective basal and 54.30 % of respective basal and 131.80 % of respective basal
HVA (% of respective basal), individual animal (T6 h-T6 h 30): 149.66 % of respective basal and 147.03 % of respective basal and 11.88 % of respective basal and 133.32 % of respective basal and 118.76 % of respective basal and 122.29 % of respective basal and 121.40 % of respective basal and 66.42 % of respective basal
HVA release, MEAN (T0-T30 min): 107.04 % of respective basal
HVA release, MEAN (T30-T1 h): 94.37 % of respective basal
HVA release, individual animals (T30-T1 h): 76.21 % of respective basal and 55.15 % of respective basal and 89.64 % of respective basal and 100.95 % of respective basal and 83.39 % of respective basal and 95.38 % of respective basal and 149.36 % of respective basal and 104.86 % of respective basal
HVA release, MEAN (T1 h 30-T2 h): 85.59 % of respective basal
HVA release, individual animals (T1 h 30-T2 h): 89.77 % of respective basal and 59.14 % of respective basal and 96.89 % of respective basal and 103.49 % of respective basal and 82.49 % of respective basal and 54.42 % of respective basal and 95.23 % of respective basal and 103.32 % of respective basal
HVA release, MEAN (T1 h-T1 h 30): 120.85 % of respective basal
HVA release, individual animals (T1 h-T1 h 30): 90.43 % of respective basal and 68.90 % of respective basal and 103.82 % of respective basal and 116.53 % of respective basal and 80.54 % of respective basal and 85.72 % of respective basal and 305.74 % of respective basal and 115.15 % of respective basal
HVA release, MEAN (T2 h 30-T3 h): 107.95 % of respective basal
HVA release, individual animals (T2 h 30-T3 h): 72.76 % of respective basal and 59.51 % of respective basal and 90.20 % of respective basal and 316.58 % of respective basal and 70.98 % of respective basal and 94.71 % of respective basal and 54.48 % of respective basal and 104.42 % of respective basal
HVA release, MEAN (T2 h-T2 h 30): 85.33 % of respective basal
HVA release, individual animals (T2 h-T2 h 30): 68.39 % of respective basal and 70.39 % of respective basal and 95.76 % of respective basal and 101.52 % of respective basal and 72.96 % of respective basal and 85.03 % of respective basal and 97.42 % of respective basal and 91.18 % of respective basal
HVA release, MEAN (T3 h 30-T4 h): 90.45 % of respective basal
HVA release, individual animals (T3 h 30-T4 h): 64.18 % of respective basal and 83.25 % of respective basal and 133.74 % of respective basal and 64.93 % of respective basal and 107.52 % of respective basal and 70.49 % of respective basal and 109.07 % of respective basal
HVA release, MEAN (T3 h-T3 h 30): 85.22 % of respective basal
HVA release, individual animals (T3 h-T3 h 30): 63.81 % of respective basal and 90.24 % of respective basal and 111.62 % of respective basal and 62.71 % of respective basal and 98.55 % of respective basal and 74.57 % of respective basal and 95.05 % of respective basal
HVA release, MEAN (T4 h 30-T5 h): 85.23 % of respective basal
HVA release, individual animals (T4 h 30-T5 h): 91.96 % of respective basal and 80.15 % of respective basal and 68.04 % of respective basal and 115.19 % of respective basal and 50.60 % of respective basal and 77.44 % of respective basal and 98.06 % of respective basal and 100.39 % of respective basal
HVA release, MEAN (T4 h-T4 h 30): 85.20 % of respective basal
HVA release, individual animals (T4 h-T4 h 30): 92.27 % of respective basal and 67.44 % of respective basal and 79.90 % of respective basal and 118.84 % of respective basal and 74.80 % of respective basal and 79.15 % of respective basal and 73.39 % of respective basal and 95.82 % of respective basal
HVA release, MEAN (T5 h 30-T6 h): 83.81 % of respective basal
HVA release, individual animals (T5 h 30-T6 h): 88.34 % of respective basal and 70.37 % of respective basal and 54.74 % of respective basal and 111.90 % of respective basal and 57.33 % of respective basal and 69.05 % of respective basal and 120.47 % of respective basal and 98.25 % of respective basal
HVA release, MEAN (T5 h-T5 h 30): 72.11 % of respective basal
HVA release, individual animals (T5 h-T5 h 30): 33.79 % of respective basal and 37.83 % of respective basal and 125.18 % of respective basal and 104.80 % of respective basal and 54.92 % of respective basal and 81.46 % of respective basal and 45.38 % of respective basal and 93.54 % of respective basal
HVA release, MEAN (T6 h 30-T7 h): 82.40 % of respective basal
HVA release, individual animals (T6 h 30-T7 h): 80.98 % of respective basal and 79.92 % of respective basal and 57.44 % of respective basal and 123.91 % of respective basal and 59.14 % of respective basal and 77.28 % of respective basal
HVA release, MEAN (T6 h-T6 h 30): 78.87 % of respective basal
HVA release, individual animals (T6 h-T6 h 30): 80.55 % of respective basal and 69.54 % of respective basal and 51.01 % of respective basal and 121.49 % of respective basal and 63.35 % of respective basal and 86.74 % of respective basal and 63.13 % of respective basal and 95.14 % of respective basal
HVA release, MEAN (T-30 min-T0 (before administration)): 101.32 % of respective basal
HVA release, MEAN (T-1 h 30-T-1 h (before administration)): 95.27 % of respective basal
HVA release, MEAN (T-1 h-T-30 min (before administration)): 103.42 % of respective basal
HVA dialysate levels vs mean pre-administration value (SON-117 0.1 mg/kg I.P.): no statistically significant differences
HVA dialysate levels vs mean pre-administration value (SON-117 0.3 mg/kg IP): no statistically significant differences
HVA release (% of basal levels) measured in dialysates, MEAN (T0-T30 min): 94.34 % of basal levels
HVA release (% of basal levels) measured in dialysates, MEAN (T30-T1 h): 98.30 % of basal levels
